According to US20250109121A1, “POTENT AND SELECTIVE SMARCA2 DEGRADING CHIMERIC MOLECULES AS CANCER THERAPEUTICS” (BOARD OF REGENTS, THE UNIVERSITY OF TEXAS SYSTEM, priority 2021, published 2025):
Like-named read-outs stand apart in the source and are kept apart here. Blank lines part the entries; values can stand above or below the compound they belong to.

Assays:
Format in all cases: cell-based
SMARCA2 [1] = target: T1, SMARCA2 (Homo sapiens, UniProt P51531); experiment: SMARCA2 degradation in cell lines, western blot; settings: for SMARCA2 degradation (western blot, in words): 0.001-10 μm; for SMARCA2 expression at 100 nM (in words): H1792 and H1299 cells
T1 sequence (P51531 whole entry): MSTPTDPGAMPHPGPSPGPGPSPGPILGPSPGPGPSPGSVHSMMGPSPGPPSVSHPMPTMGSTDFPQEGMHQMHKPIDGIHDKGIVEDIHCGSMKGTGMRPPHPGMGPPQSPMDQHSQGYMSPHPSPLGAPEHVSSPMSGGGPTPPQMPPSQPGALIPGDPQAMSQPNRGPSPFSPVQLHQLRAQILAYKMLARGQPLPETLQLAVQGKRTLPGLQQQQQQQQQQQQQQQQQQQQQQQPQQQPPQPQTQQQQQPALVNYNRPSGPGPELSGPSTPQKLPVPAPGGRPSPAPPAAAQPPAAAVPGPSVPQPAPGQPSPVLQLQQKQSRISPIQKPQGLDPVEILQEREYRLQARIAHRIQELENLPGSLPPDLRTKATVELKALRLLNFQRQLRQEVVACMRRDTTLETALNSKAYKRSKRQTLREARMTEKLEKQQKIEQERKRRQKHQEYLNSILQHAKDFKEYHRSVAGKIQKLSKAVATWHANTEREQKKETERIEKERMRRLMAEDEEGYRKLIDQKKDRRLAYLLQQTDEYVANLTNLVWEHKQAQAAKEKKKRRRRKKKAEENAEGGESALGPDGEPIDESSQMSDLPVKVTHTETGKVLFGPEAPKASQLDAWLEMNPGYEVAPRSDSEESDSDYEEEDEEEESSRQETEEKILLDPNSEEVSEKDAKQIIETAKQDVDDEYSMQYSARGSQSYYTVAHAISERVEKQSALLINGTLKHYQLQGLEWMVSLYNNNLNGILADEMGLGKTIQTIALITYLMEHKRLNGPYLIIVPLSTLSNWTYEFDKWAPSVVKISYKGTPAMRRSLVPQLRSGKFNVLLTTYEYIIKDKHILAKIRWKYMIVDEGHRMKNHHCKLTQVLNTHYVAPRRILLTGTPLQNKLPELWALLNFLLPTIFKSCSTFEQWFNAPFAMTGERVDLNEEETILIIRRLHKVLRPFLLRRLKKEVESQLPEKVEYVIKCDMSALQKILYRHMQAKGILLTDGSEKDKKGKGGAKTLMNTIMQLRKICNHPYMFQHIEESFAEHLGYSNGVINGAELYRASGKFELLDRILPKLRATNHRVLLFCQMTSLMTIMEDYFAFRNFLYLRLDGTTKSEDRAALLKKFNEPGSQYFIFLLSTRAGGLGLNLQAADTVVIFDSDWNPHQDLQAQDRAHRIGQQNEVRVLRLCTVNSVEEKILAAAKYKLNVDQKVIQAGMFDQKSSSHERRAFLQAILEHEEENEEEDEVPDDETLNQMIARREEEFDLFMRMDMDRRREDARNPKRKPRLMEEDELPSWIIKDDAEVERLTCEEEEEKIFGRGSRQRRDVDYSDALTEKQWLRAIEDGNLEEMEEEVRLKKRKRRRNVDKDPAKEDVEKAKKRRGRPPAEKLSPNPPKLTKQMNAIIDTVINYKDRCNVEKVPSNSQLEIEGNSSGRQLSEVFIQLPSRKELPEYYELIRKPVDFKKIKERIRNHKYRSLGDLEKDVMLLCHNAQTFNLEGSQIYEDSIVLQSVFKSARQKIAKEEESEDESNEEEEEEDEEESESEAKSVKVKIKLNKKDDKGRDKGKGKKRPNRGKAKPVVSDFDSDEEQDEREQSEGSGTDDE
Description: Cell lines with wild-type SMARCA4 (H1975, H1792, H2122, and H441) were treated with DMSO or 0.001, 0.01, 0.1, 1, or 10 μm of ACBI1 (degrader of SMARCA2, SMARCA4 and polybromo-associated BAF complex PBRM1) or Compound 101 and expression levels of SMARCA2 (FIG. 2A) and SMARCA4 (FIG. 2B) were detected by western blot.
(§1) Cell lines with wild-type SMARCA4 (H1792) and mutant SMARCA4 (H1299) were treated for 72 h or 96 h with DMSO or 0.001, 0.01, 0.1, 1, or 10 μm Compound 103 and analyzed by western blot for SMARCA2, SMARCA4, and PBRM1 expression (FIGS. 4A, 4B, and 4C).
(§2) Cell lines with wild-type SMARCA4 (H1792) and mutant SMARCA4 (H1299) were treated for 72 h or 96 h with DMSO or 0.001, 0.01, 0.1, 1, or 10 μm Compound 102 and analyzed by western blot for SMARCA2, SMARCA4, and PBRM1 expression (FIGS. 5A, 5B, and 5C).
(§3) Cell lines with wild-type SMARCA4 (H1975) were treated with DMSO or 0.001, 0.01, 0.1, 1, or 10 μm of Compounds 104, 105, 106, 107, or 108 and analyzed by western blot for SMARCA2, SMARCA4, and PBRM1 expression (FIGS. 6A and 6B).

SMARCA4 [2] = target: SMARCA4 (Homo sapiens, UniProt P51532); experiment: SMARCA4 degradation in cell lines, western blot; settings: for DC50: read-out: SMARCA4 DC50
Chain of SMARCA4 (Homo sapiens, UniProt P51532) (P51532 whole entry): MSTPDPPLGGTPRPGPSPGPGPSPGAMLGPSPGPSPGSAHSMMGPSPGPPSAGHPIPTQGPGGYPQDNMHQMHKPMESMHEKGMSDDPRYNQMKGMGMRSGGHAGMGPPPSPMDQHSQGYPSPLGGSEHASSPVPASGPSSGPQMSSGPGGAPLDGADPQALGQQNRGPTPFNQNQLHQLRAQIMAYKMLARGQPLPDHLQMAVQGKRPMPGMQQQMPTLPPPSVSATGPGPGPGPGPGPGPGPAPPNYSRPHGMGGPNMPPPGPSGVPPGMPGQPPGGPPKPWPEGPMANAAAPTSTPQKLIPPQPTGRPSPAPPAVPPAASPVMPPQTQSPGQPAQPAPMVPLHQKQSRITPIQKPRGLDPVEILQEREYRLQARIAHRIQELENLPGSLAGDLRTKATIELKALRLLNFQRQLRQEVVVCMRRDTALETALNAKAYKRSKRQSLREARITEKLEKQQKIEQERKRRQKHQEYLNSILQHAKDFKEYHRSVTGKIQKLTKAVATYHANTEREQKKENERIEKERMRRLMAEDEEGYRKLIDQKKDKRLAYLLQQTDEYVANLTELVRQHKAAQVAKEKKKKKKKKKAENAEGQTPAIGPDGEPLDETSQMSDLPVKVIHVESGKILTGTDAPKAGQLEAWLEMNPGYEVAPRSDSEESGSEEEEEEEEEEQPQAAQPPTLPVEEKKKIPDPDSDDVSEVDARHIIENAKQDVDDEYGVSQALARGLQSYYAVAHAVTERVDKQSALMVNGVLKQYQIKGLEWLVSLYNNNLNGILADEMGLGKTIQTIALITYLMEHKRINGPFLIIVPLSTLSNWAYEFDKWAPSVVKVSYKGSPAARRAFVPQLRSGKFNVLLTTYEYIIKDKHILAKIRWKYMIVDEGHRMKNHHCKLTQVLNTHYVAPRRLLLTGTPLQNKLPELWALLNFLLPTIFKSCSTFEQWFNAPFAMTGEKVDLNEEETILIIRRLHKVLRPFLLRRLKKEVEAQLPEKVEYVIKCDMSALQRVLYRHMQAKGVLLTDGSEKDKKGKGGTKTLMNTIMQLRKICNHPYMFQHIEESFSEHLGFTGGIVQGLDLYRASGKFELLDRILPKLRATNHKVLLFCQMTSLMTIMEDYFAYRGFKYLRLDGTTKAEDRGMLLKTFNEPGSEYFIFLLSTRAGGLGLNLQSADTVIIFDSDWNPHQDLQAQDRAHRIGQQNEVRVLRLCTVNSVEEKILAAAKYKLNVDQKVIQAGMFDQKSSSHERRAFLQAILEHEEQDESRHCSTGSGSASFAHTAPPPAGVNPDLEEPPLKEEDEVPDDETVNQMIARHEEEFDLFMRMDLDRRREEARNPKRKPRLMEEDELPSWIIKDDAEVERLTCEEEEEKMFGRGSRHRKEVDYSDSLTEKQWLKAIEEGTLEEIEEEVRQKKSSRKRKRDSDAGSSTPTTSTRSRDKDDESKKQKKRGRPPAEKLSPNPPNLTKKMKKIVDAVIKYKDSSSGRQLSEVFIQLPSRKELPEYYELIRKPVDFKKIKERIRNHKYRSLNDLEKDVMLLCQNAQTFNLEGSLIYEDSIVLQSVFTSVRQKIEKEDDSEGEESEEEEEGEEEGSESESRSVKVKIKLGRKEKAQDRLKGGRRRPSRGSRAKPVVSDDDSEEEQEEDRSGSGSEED

wild-type SMARCA4 cells = experiment: Colony assay / cell proliferation, wild-type SMARCA4 cell lines as a group; settings: HCC44, H2122, H1792, H1975; 0.001-10 μm
Description: (§4) Cell lines with wild-type SMARCA4 (HCC44, H2122, H1792 and H1975) and cell lines with mutant SMARCA4 (H1693, HCC515, H322, and H1299) were seeded in appropriate dilutions to form colonies in about 1-3 weeks. Cells were treated with ACBI1 or Compound 101 at concentrations of 0.001, 0.01, 0.1, 1, and 10 μm. Colonies were fixed with glutaraldehyde (6% v/v), stained with crystal violet (0.5% w/v) and the percent area of colonies was determined (FIGS. 3A and 3B). In cell lines with wild-type SMARCA4, inhibition of colony growth was more pronounced after treatment with ACBI1 than Compound 101 (FIG. 3A).

mutant SMARCA4 cells = experiment: Colony assay / cell proliferation, mutant SMARCA4 cell lines as a group; settings: H1693, HCC515, H322, H1299; 0.001-10 μm
Description: as §4

SMARCA2 [3] = target: T1, SMARCA2; experiment: SMARCA2 degradation in cell lines, western blot
SMARCA4 [4] = experiment: SMARCA4 degradation in cell lines, western blot; settings: H1792 and H1299 cells, 72 h or 96 h, 0.001-10 μm
PBRM1 = target: T2, PBRM1 (Homo sapiens, UniProt Q86U86); experiment: PBRM1 expression in cell lines, western blot; settings: H1792 and H1299 cells, 72 h or 96 h, 0.001-10 μm
T2 construct: heterobifunctional compounds, which recruit endogenous proteins to a ubiquitin ligase for degradation; endogenous in cells; host or cells: H1792, H1299, H1975
T2 sequence (Q86U86 whole entry): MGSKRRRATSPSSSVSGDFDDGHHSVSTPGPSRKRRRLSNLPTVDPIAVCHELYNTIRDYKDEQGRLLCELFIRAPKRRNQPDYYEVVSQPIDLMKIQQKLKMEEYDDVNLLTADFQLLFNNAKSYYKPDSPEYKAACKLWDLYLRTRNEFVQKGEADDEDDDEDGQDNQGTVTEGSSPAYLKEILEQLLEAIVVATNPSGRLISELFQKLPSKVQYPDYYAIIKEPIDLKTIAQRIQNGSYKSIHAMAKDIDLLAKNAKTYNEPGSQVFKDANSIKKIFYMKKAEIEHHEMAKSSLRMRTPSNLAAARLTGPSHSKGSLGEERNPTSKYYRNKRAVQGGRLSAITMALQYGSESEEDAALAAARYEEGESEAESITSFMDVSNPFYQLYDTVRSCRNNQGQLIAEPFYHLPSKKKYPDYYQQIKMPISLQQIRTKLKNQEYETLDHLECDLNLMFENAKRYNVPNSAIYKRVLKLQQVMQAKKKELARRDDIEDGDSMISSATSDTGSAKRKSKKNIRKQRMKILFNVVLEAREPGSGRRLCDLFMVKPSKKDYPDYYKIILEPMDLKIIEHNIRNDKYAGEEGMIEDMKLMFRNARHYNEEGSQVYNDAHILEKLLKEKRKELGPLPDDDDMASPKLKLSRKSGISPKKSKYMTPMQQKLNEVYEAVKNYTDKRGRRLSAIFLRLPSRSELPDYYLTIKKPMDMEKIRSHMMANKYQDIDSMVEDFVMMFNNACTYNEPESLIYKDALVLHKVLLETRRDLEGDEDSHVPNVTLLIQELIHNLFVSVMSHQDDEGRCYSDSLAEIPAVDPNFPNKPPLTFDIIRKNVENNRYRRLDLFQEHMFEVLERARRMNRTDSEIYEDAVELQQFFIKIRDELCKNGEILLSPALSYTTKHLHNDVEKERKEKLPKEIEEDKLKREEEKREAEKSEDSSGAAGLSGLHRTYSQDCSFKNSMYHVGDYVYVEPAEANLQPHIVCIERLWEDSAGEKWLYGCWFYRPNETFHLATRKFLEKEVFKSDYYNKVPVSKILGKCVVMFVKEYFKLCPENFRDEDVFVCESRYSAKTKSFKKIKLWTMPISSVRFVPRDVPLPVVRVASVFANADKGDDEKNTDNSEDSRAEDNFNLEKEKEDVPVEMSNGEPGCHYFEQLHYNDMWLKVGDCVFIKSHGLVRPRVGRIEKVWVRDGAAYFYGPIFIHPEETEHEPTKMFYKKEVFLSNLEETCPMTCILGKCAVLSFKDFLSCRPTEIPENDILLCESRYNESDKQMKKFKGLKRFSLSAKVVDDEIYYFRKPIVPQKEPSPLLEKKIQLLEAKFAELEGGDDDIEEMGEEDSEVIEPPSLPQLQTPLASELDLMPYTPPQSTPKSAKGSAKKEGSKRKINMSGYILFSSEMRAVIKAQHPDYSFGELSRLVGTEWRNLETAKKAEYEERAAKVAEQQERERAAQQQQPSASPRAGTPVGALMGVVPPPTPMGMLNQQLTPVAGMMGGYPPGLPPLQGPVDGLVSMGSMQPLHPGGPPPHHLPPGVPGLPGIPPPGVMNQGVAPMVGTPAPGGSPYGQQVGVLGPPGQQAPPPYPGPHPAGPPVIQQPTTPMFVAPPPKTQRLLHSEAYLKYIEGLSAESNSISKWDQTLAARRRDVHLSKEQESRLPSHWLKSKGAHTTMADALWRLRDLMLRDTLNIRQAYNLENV
Description: as §1, §2, §3

[5] = H441, wild-type SMARCA4 cell line
[6] = H1792, wild-type SMARCA4 cell line
[7] = H2122, wild-type SMARCA4 cell line
[8] = H1975, wild-type SMARCA4 cell line
[9] = H1792 (wild-type SMARCA4) and H1299 (mutant SMARCA4) cells, 72 h or 96 h

SMILES: Cc1ncsc1-c1ccc(CNC(=O)[C@@H]2C[C@@H](O)CN2C(=O)[C@@H](NC(=O)C2(F)CC2)C(C)(C)C)c(OCCOc2ccc(CN3CCN(c4cc(-c5ccccc5O)nnc4N)CC3)cc2)c1 [ACBI1, reference compound]
- DC50 (SMARCA2 [1]; [5]): 11 nM
- DC50 (SMARCA2 [1]; [6]): 7 nM
- SMARCA2 degradation (western blot, in words) (SMARCA2 [1]; H1975, H1792, H2122, H441, increasing concentrations): degraded SMARCA2 and SMARCA4
- DC50 (SMARCA2 [1]; H1975, wild-type SMARCA4 cell line, concentration at which 50% of the target protein is degraded): 51 nM
- DC50 (SMARCA2 [1]; [7]): 13 nM
- SMARCA4 Dmax (%) (SMARCA4 [2]; [5]): 99%
- DC50 (SMARCA4 [2]; [5]): 36 nM
- SMARCA4 Dmax (%) (SMARCA4 [2]; [6]): 98%
- DC50 (SMARCA4 [2]; [6]): 18 nM
- SMARCA4 Dmax, span over cell lines (SMARCA4 [2]; H1975, H1792, H2122, H441 (Table 3)): 97-99%
- SMARCA4 degradation (western blot, in words) (SMARCA4 [2]; H1975, H1792, H2122, H441, 0.001-10 μm, increasing concentrations): degraded SMARCA2 and SMARCA4
- SMARCA4 Dmax (%) (SMARCA4 [2]; [8]): 98%
- DC50 (SMARCA4 [2]; [8]): 98 nM
- SMARCA4 Dmax (%) (SMARCA4 [2]; [7]): 97%
- DC50 (SMARCA4 [2]; [7]): 32 nM
- colony growth / proliferation of wild-type SMARCA4 cells (in words) (wild-type SMARCA4 cells): inhibited wild-type and mutant SMARCA4 cells
- colony growth / proliferation of mutant SMARCA4 cells (in words) (mutant SMARCA4 cells): inhibited wild-type and mutant SMARCA4 cells
- SMARCA2 Dmax (%) (SMARCA2 [3]; [5]): 97%
- SMARCA2 Dmax (%) (SMARCA2 [3]; [6]): 97%
- SMARCA2 Dmax (%) (SMARCA2 [3]; H1975, wild-type SMARCA4 cell line, maximum degradation as percentage of DMSO control): 98%
- SMARCA2 Dmax (%) (SMARCA2 [3]; [7]): 95%

- SMARCA2 degradation (western blot, in words) (SMARCA2 [1]; [9]): efficiently degraded SMARCA2
SMILES: Nc1nnc(-c2ccccc2O)cc1N1CCN(Cc2ccc(N3CCC(CN4CCN(c5ccc6c(c5)C(=O)N(C5CCC(=O)NC5=O)C6=O)CC4)CC3)c(F)c2)CC1 (centres unmarked) [Compound 103]
- SMARCA2 expression at 100 nM (in words) (SMARCA2 [1]): significantly inhibited SMARCA2 expression
- SMARCA4 expression (western blot, in words) (SMARCA4 [4]): reduced expression of SMARCA4 in H1792 cells
- PBRM1 expression (western blot, in words) (PBRM1): did not have a significant effect on the expression of PBRM1

- SMARCA2 degradation (western blot, in words) (SMARCA2 [1]; [9]): efficiently degraded SMARCA2
SMILES: Nc1nnc(-c2ccccc2O)cc1N1CCN(Cc2ccc(N3CCN(CCOc4cccc5c4C(=O)N(C4CCC(=O)NC4=O)C5=O)CC3)c(F)c2)CC1 (centres unmarked) [Compound 102]
- SMARCA2 expression at 100 nM (in words) (SMARCA2 [1]): significantly inhibited SMARCA2 expression
- SMARCA4 expression (western blot, in words) (SMARCA4 [4]): reduced expression of SMARCA4
- PBRM1 expression (western blot, in words) (PBRM1): did not have a significant effect on the expression of PBRM1
